Assay results from patent US10266497B2 (ABIDE THERAPEUTICS, INC., priority 2017, dated 2019).

Assays:
[1] = target: T1, MAGL (Homo sapiens, UniProt Q99685); assay: In vitro competitive activity-based protein profiling, MAGL, human; settings: read-out: MAGL % inh. 1 μM (human)
T1 sequence (Q99685 1-303): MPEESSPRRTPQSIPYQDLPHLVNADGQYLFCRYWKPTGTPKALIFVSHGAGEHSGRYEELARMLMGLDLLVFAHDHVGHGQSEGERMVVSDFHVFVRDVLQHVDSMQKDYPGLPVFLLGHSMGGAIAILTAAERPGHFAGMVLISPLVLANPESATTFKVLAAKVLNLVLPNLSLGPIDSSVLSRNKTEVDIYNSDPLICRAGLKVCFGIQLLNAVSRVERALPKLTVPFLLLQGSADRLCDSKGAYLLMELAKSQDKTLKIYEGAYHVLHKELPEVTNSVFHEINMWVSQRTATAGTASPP

[2] = target: T2, MAGL (Mus musculus, UniProt O35678); assay: In vitro competitive activity-based protein profiling, MAGL, mouse; settings: read-out: MAGL % inh. 1 μM (mouse)
T2 sequence (O35678 1-303): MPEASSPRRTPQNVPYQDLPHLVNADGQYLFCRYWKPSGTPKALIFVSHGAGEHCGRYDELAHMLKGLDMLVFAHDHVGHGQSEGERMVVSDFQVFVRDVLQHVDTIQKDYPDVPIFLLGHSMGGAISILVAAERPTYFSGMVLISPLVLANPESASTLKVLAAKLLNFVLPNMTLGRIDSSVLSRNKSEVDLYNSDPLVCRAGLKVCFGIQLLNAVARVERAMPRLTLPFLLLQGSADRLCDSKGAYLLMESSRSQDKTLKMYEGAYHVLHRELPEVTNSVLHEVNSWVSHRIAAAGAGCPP

| SMILES | inhibition at 1 µM [1] [%] | inhibition at 1 µM [2] [%] |
| --- | --- | --- |
| O=C(O)c1ccn(C(=O)N2CCN(Cc3cccc(Oc4ccc(F)cn4)c3)CC2)n1 [Example 266, 1-(4-(3-((5-fluoropyridin-2-yl)oxy)benzyl)piper-azine-1-carbonyl)-1H-pyrazole-3-carboxylic acid] | > 75 | > 75 |
| O=C(O)c1ccn(C(=O)N2C[C@H]3C[C@H](Oc4ccccc4C4CCOCC4)C[C@H]3C2)n1 [Example 268, 1-(trans-5-(2-(tetrahydro-2H-pyran-4-yl)phenoxy)octa-hydrocyclopenta[c]pyrrole-2-carbonyl)-1H-pyrazole-3-carboxylic acid] | > 75 | > 75 |
| O=C(O)c1nn(C(=O)N2CCN(Cc3cccc(-c4cncnc4)c3)CC2)cc1Cl [Example 270, 4-chloro-1-(4-(3-(pyrimidin-5-yl)benzyl)piperazine-1-carbonyl)-1H-pyrazole-3-carboxylic acid] | > 75 | > 75 |
| C[C@H]1CN(Cc2cc(Cl)cc(C(F)(F)F)c2)CCN1C(=O)n1ccc(C(N)=O)n1 [Example 271, (S)-1-(4-(3-chloro-5-(trifluoromethyl)benzyl)-2-methylpiperazine-1-carbonyl)-1H-pyrazole-3-carboxamide] | > 75 | > 75 |
| C[C@@H]1CN(Cc2cc(Cl)cc(C(F)(F)F)c2)CCN1C(=O)n1ccc(C(N)=O)n1 [Example 272, (R)-1-(4-(3-chloro-5-(trifluoromethyl)benzyl)-2-methylpiperazine-1-carbonyl)-1H-pyrazole-3-carboxamide] | > 75 | > 75 |
| O=C(O)c1ccn(C(=O)N2CCN(Cc3ccc(Cl)c(-c4nccs4)c3)CC2)n1 [Example 274, 1-(4-(4-chloro-3-(thiazol-2-yl)benzyl)piperazine-1-carbonyl)-1H-pyrazole-3-carboxylic acid] | > 75 | > 75 |
| O=C(O)c1ccn(C(=O)N2CCC(OCc3ccc(Cl)c(C(F)(F)F)c3)CC2)n1 [Example 276, 1-(4-((4-chloro-3-(trifluoromethyl)benzyl)oxy)piper-idine-1-carbonyl)-1H-pyrazole-3-carboxylic acid] | > 75 | > 75 |
| O=C(O)c1ccn(C(=O)N2CCC(OCc3cc(Cl)ccc3C(F)(F)F)CC2)n1 [Example 277, 1-(4-((5-chloro-2-(trifluoromethyl)benzyl)oxy)piper-idine-1-carbonyl)-1H-pyrazole-3-carboxylic acid] | > 75 | > 75 |
| COc1ccc(Cl)cc1CN1CCC2(CCN(C(=O)n3ccc(C(=O)O)n3)CC2)C1 [Example 282, 1-(2-(5-chloro-2-methoxybenzyl)-2,8-diazaspiro[4.5]decane-8-carbonyl)-1H-pyrazole-3-carboxylic acid] | 50 to 75 | 0 to 25 |
| COc1cc(-c2ccccc2)ccc1CN1CCN(C(=O)n2ccc(C(=O)O)n2)[C@H](C)C1 [Example 283, (R)-1-(4-((3-methoxy-[1,1′-biphenyl]-4-yl)methyl)-2-methylpiperazine-1-carbonyl)-1H-pyrazole-3-carboxylic acid] | > 75 | > 75 |
| NC(=O)c1ccn(C(=O)N2CCC3(CCN(Cc4cccc(C(F)(F)F)c4)C3)CC2)n1 [Example 284, 1-(2-(3-(trifluoromethyl)benzyl)-2,8-diazaspiro[4.5]decane-8-carbonyl)-1H-pyrazole-3-carboxamide] | > 75 | > 75 |
| O=C(O)c1ccn(C(=O)N2CCC3(CCN(Cc4cccc(Cl)c4Cl)C3)CC2)n1 [Example 286, 1-(2-(2,3-dichlorobenzyl)-2,8-diazaspiro[4.5]decane-8-carbonyl)-1H-pyrazole-3-carboxylic acid] | > 75 | > 75 |
| O=C(O)c1ccn(C(=O)N2CCC3(CCN(Cc4cccc(C(F)(F)F)c4)CC3)C2)n1 [Example 287, 1-(8-(3-(trifluoromethyl)benzyl)-2,8-diazaspiro[4.5]decane-2-carbonyl)-1H-pyrazole-3-carboxylic acid] | 25 to 50 | 0 to 25 |
| C[C@@H]1CN(Cc2ccc(F)c(Oc3ccccc3)c2)CCN1C(=O)n1ccc(C(=O)O)n1 [Example 294, (R)-1-(4-(4-fluoro-3-phenoxybenzyl)-2-methylpiperazine-1-carbonyl)-1H-pyrazole-3-carboxylic acid] | > 75 | > 75 |
| C[C@@H]1CN(Cc2cccc(Oc3ccc(F)cn3)c2)CCN1C(=O)n1ccc(C(=O)O)n1 [Example 295, (R)-1-(4-(3-((5-fluoropyridin-2-yl)oxy)benzyl)-2-methylpiperazine-1-carbonyl)-1H-pyrazole-3-carboxylic acid] | 50 to 75 | > 75 |
| CN(Cc1cccc(-c2ccccc2)c1)[C@H]1C[C@@H]2CN(C(=O)n3ccc(C(=O)O)n3)C[C@@H]2C1 [Example 298, 1-(trans-5-(([1,1′-biphenyl]-3-ylmethyl)(methyl)amino)octahydrocyc-lopenta[c]pyrrole-2-carbonyl)-1H-pyrazole-3-carboxylic acid] | > 75 | > 75 |
| C[C@@H]1CN(Cc2ccc(Cl)c(-c3nccs3)c2)CCN1C(=O)n1ccc(C(=O)O)n1 [Example 299, (R)-1-(4-(4-chloro-3-(thiazol-2-yl)benzyl)-2-methylpiperazine-1-carbonyl)-1H-pyrazole-3-carboxylic acid] | > 75 | > 75 |

The next lines start with the values.

| inhibition at 1 µM [1] [%] | inhibition at 1 µM [2] [%] | SMILES |
| --- | --- | --- |
| > 75 | > 75 | O=C(O)c1ccn(C(=O)N2CCC(OCc3cc(Cl)cc(C(F)(F)F)c3)CC2)n1 [Example 275, 1-(4-((3-chloro-5-(trifluoromethyl)benzyl)oxy)piper-idine-1-carbonyl)-1H-pyrazole-3-carboxylic acid] |
| > 75 | > 75 | O=C(O)c1ccn(C(=O)N2C[C@H]3C[C@H](OCc4cccc(-c5ccccc5)c4)C[C@H]3C2)n1 [Example 278, 1-(trans-5-([1,1′-biphenyl]-3-ylmethoxy)octa-hydrocyclopenta[c]pyrrole-2-carbonyl)-1H-pyrazole-3-carboxylic acid] |
| > 75 | > 75 | O=C(O)c1ccn(C(=O)N2C[C@H]3C[C@@H](OCc4cccc(-c5ccccc5)c4)C[C@H]3C2)n1 [Example 279, 1-(cis-5-([1,1′-biphenyl]-3-ylmethoxy)octa-hydrocyclopenta[c]pyrrole-2-carbonyl)-1H-pyrazole-3-carboxylic acid] |
| > 75 | > 75 | Cc1cn(C(=O)N2C[C@H]3C[C@H](Oc4cccc(-c5ccccc5)c4)C[C@H]3C2)nc1C(=O)O [Example 280, 1-(trans-5-([1,1′-biphenyl]-3-yloxy)octahydro-cyclopenta[c]pyrrole-2-carbonyl)-4-methyl-1H-pyrazole-3-carboxylic acid] |
| > 75 | > 75 | Cc1cn(C(=O)N2C[C@H]3C[C@H](Oc4ccccc4-c4ccccc4)C[C@H]3C2)nc1C(=O)O [Example 281, 1-(trans-5-([1,1′-biphenyl]-2-yloxy)octahydro-cyclopenta[c]pyrrole-2-carbonyl)-4-methyl-1H-pyrazole-3-carboxylic acid] |
| > 75 | > 75 | Cc1c(CO[C@@H]2C[C@@H]3CN(C(=O)n4ccc(C(=O)O)n4)C[C@@H]3C2)cccc1C(F)(F)F [Example 289, 1-(cis-5-((2-methyl-3-(trifluoromethyl)benzyl)oxy)octa-hydrocyclopenta[c]pyrrole-2-carbonyl)-1H-pyrazole-3-carboxylic acid] |
| > 75 | > 75 | Cc1cn(C(=O)N2C[C@H]3C[C@H](OCc4cccc(C(F)(F)F)c4)C[C@H]3C2)nc1C(=O)O [Example 290, 4-methyl-1-(trans-5-((3-(trifluoromethyl)benzyl)oxy)octa-hydrocyclopenta[c]pyrrole-2-carbonyl)-1H-pyrazole-3-carboxylic acid] |
| > 75 | > 75 | O=C(O)c1nn(C(=O)N2C[C@H]3C[C@H](OCc4cc(F)cc(Cl)c4)C[C@H]3C2)cc1Cl [Example 296, 4-chloro-1-(trans-5-((3-chloro-5-fluorobenzyl)oxy)octahydrocyclopenta [c]pyrrole-2-carbonyl)-1H-pyrazole-3-carboxylic acid] |
| > 75 | > 75 | O=C(O)c1ccn(C(=O)N2C[C@H]3C[C@H](Oc4cc(Cl)ccc4C(F)(F)F)C[C@H]3C2)n1 [Example 297, 1-(trans-5-(5-chloro-2-(trifluoromethyl)phenoxy)octahydro-cyclopenta[c]pyrrole-2-carbonyl)-1H-pyrazole-3-carboxylic acid] |
